The target of series [1] is T1, stabilized FtsZ-GMPCPP polymers (BsFtsZ) (Bacillus subtilis, UniProt P17865).
T1 construct: made in house
Briefly: Competition assay: displacement of probe (S)-2 from stabilized FtsZ-GMPCPP polymers. It counts as binding. Particulars: for Kd: (S)-2 3 μM, 8 μM binding sites. As to the method:
(§1) FtsZ (10–15 μM) was assembled in HEPES buffer, 10 mM MgCl2, 50 μM GMPCPP at 25 °C for 10 min, and then 0.15% (v/v) glutaraldehyde[36] (distilled grade for microscopy, TAAB Laboratories, U.K.) was added to the solution that was incubated at 25 °C for 10 min more. (This was the minimal glutaraldehyde concentration determined to stabilize FtsZ polymers specifically binding probe 1.) The remains of the cross-linking agent were quenched by adding 60 mM NaBH4, the sample was incubated on ice for 10 min and degassed.[36] Cross-linked polymers were centrifuged for 10 min at 8200g (5000 rpm) and 4 °C in 15 mL Falcon tubes employing a Rotina 380R (Hettich) centrifuge, the supernatant was removed and the pellet was resuspended in the same volume of HEPES buffer, 10 mM MgCl2, containing 5 μM GMPCPP. Fixed FtsZ polymers were active in binding assays after more than 2 days at 4 °C; they could also be frozen in liquid nitrogen with a small loss of binding capacity. […] Cross-linked polymers of SaFtsZ were similarly prepared.
(§2) Competition assays were performed by measuring, through the decrease in fluorescence anisotropy, the displacement of the fluorescent probes from stabilized FtsZ polymers. Increasing concentrations of competing ligands were added to the mixtures of cross-linked FtsZ polymers (10–15 μM) with probe 1 (3 μM), 7–8 μM FtsZ polymers with probe (S)-2 (3 μM), or 2–3 μM FtsZ polymers with (R)-5 (3 μM). HEPES buffer with 10 mM MgCl2 and 0.1 mM GMPCPP was employed, with a final volume of 0.5 mL, and the anisotropy measured at 25 °C. Under these conditions, the initial fraction of the probe bound was between 0.4 and 0.5. The fraction of the probe bound (Vb) was calculated [drawing 1] where rfree and rmax are the anisotropy values of the free and bound probes, respectively, and R is the ratio between the fluorescence intensities of the bound and free probe (Table S1). The binding data were plotted against the competing ligand concentration and fitted by competition equilibrium of the ligand and the probe for the same binding site. The resulting system of equations[50] was numerically solved using the Equigra v. 5.0 program,[33] which provided the best-fitted value of the competitor binding constant.

The target in series [2] is T2, stabilized FtsZ-GMPCPP polymers (Bacillus subtilis, UniProt P17865).
T2 construct: made in house
The series can be described thus: Fluorescence anisotropy screen with probe (S)-2 at two compound concentrations. The following applies: probe (S)-2 3 μM, compound 20 and 200 μM. It is filed as binding. As to the method: Once the fluorescence method for ligand binding into the interdomain cleft was set up, we evaluated its potential to screen for FtsZ allosteric inhibitors. Complementary to this screen, cytological profiling tests of the identified binders allow ascertaining their ability to target FtsZ in bacterial cells. Fluorescence anisotropy measurements of probe (S)-2 at two concentrations of each tested compound (20 and 200 μM) were acquired; the solubility range of positively testing compounds was determined spectrophotometrically. […] The promiscuous inhibitors resveratrol,[40] plumbagin,[41] and tiplaxtinin[42] […] It should be noticed that aggregating compounds may sequester the protein or the probe or may scatter highly polarized light, potentially interfering with the fluorescence anisotropy measurements. Colored and fluorescent compounds can also interfere. Compounds initially testing positive in the anisotropy screen should thus be checked for any unexpected changes of the total fluorescence intensity in the same samples, as well as for any artefactual effects on replicates omitting FtsZ.
Figure 4 Fluorescence anisotropy screen for FtsZ allosteric inhibitors combined with cell-based methods. (A) Screen for FtsZ inhibitors employing the fluorescence anisotropy of probe (S)-2 (3 μM) and stabilized FtsZ-GMPCPP polymers (8 μM binding sites). The anisotropy values of the partially bound probe (void black circles), the free probe (void gray circles), and the values with two concentrations of each compound, 20 μM (gray circles) and 200 μM (black circles) are shown. Control values with the corresponding concentrations of dimethyl sulfoxide (DMSO) vehicle (2% void and gray circles; 4%, black circle) are also shown. (B) Chemical structures of synthetic ligands 6–26. (C) Effects of low-affinity inhibitors 6, 7, and 9 on B. subtilis 168 cell division. Raw data plots (n ≥ 30) are shown with the mean values marked (statistics in Table S2). The cells were incubated for 3 h with each compound, and cell lengths were measured. (D) Representative phase-contrast images of cells after 3 h with 7 or 9 (0.75 mM each). (E) Cellular localization of FtsZ-GFP in B. subtilis SU570 following growth for 1.5 h in the absence (inset) and presence of 7 (0.2 mM). Bars, 10 μm.
as §2

Series [3] can be described thus: Solubility in HEPES buffer with 2% DMSO, spectrophotometric. It counts as physicochemical. The following applies: HEPES buffer containing 2% DMSO, 25 °C, aqueous buffer, kinetic from dmso stock; HEPES buffer pH 6.8 containing 2% DMSO. The protocol:
3.2. Solubility of Compounds. Stock solutions of compounds were prepared in
DMSO (spectroscopic grade, Merck) a nd stored at -20 °C. Compound solubility in 50
mM HEPES-KOH, 50 mM KCl, 1 mM EDTA, pH 6.8 (HEPES buffer) containing 2%
DMSO was determined spectrophotometrically, monitoring the linear correlation
between the absorbance and the compound concentration and the absence of light
scattering. The solutions were optionally centrifuged at 100000 rpm for 20 min at 25 °C
in a TLA100 rotor with a Beckman Optima Max -XP ultracentrifuge.

Series [4] concerns the target T3, stabilized polymers of FtsZ from B. subtilis (Bacillus subtilis, UniProt P17865).
T3 construct: made in house
The series can be described thus: Competition assay: displacement of probe (R)-5 from stabilized BsFtsZ-GMPCPP polymers. It is filed as binding. The following applies: stabilized polymers of FtsZ from B. subtilis, probe (R)-5, mean ± SEM. As to the method:
as §1, §2

In series [5] the test system is B. subtilis. Briefly: Minimal division inhibitory concentration and cell division phenotype, B. subtilis. It counts as cell-based, Bacillus subtilis. Particulars: for minimal effective concentration: Bacillus subtilis, read-out: MDC B. subtilis. As to the method: (§3) B. subtilis 168 and Staphylococcus spp. were grown in cation adjusted Mueller–Hinton broth (CAMHB; Becton, Dickinson and Company) at 37 °C. B. subtilis SU570 were grown in the same medium at 30 °C. In all cases, the cells were grown to an absorbance of 0.1–0.2 at 600 nm and then incubated either with the compounds or DMSO vehicle. Microscopy assays and cell measurement were performed as previously described.[31] MIC values were determined by a broth macrodilution method.[51] MBC values were determined as the lowest concentration of inhibitor at which there was a 99.9% reduction in colony-forming units/mL compared to the inoculum. To construct a S. aureus strain expressing FtsZ-mCherry, the plasmid pCN-ftsZmch[9] was electroporated into RN4220 and 0.1 μM cadmium chloride (Sigma-Aldrich) was used to induce the expression of the construct under the control of the Pcad promoter.

The test system of series [6] is B. subtilis. The series can be described thus: Minimal growth inhibitory concentration (broth macrodilution), B. subtilis. It counts as cell-based, Bacillus subtilis. The following applies: Bacillus subtilis, read-out: MIC B. subtilis. As to the method: as §3
In series [7] the test system is S. aureus Mu50. Briefly: Minimal growth inhibitory concentration (broth macrodilution), S. aureus Mu50. It counts as cell-based, Staphylococcus aureus. Particulars: Staphylococcus aureus, MU50, read-out: MIC S. aureus Mu50. The protocol:
as §3

The test system of series [8] is S. aureus Mu50. The series can be described thus: Minimal division inhibitory concentration, S. aureus Mu50. The following applies: Staphylococcus aureus, MU50, read-out: MDC S. aureus Mu50. It counts as cell-based. As to the method: as §3

In brackets after ≈: the same amount, converted by molar mass. Several values for one entry are separate records, joined by “and”; a condition that tells them apart may be missing. Equal entries are not always repeated. Where two headings read alike, the source gives them in different places.

As usually defined, the Kd is the constant that tells how readily two partners part at equilibrium. A word on the solubility: it is how much of the substance goes into solution per volume. Usually MIC stands for the lowest concentration that inhibits growth of the organism.

T1 sequence (P17865 whole entry): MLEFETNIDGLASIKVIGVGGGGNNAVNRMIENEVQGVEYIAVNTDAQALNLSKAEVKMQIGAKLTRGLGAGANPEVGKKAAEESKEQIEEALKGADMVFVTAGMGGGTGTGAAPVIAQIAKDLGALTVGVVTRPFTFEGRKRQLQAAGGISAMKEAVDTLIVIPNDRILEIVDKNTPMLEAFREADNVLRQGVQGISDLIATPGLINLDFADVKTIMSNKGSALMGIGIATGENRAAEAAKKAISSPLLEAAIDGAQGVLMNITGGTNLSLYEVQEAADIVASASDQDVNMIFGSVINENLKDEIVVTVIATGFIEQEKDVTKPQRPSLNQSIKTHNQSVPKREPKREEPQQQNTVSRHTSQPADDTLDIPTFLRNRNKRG
T3 sequence (P17865 whole entry): as above
T2 sequence (P17865 whole entry): as above

Take `OCc1nc2cc(Cl)cnc2s1` [CTPM, 6-(chloro[1,3]thiazolo[5,4-b]pyridin-2-yl)methanol, reference compound]: binding in series [1] was put at a Kd of 1000 ± 100 µM.
`CN(Cc1cccc(Cl)c1)c1ccc(C(N)=O)cc1` [Compound 10]: the Kd in series [1] is 250 µM and ~200 µM. Besides, the “result of the anisotropy screen, in words” value (“result” for short) in series [2] was “weak binders”. The same compound yielded a solubility in series [3] of no less than 100 µM.
Regarding `NC(=O)c1cccc(OCCCc2cccc(Cl)c2)c1` [Compound 13], in series [4] (read-out: KD), the dissociation constant Kd was 9.5 ± 0.5 µM. In the series on B. subtilis [5], the minimal effective concentration was determined as 25 µM. Besides, the MIC in the series with B. subtilis [6] is 100 µM (≈ 29 µg/mL); with S. aureus Mu50 [7], greater than 100 µM. The compound further yielded a solubility in series [3] of 25 µM (≈ 7.24 µg/mL).
In the case of `NC(=O)c1c(F)ccc(OCc2ccccc2C(F)(F)F)c1F` [Compound 19], the Kd in series [4] (read-out: KD) was determined as 71 ± 6 µM. For the same compound, the minimal effective concentration with B. subtilis [5] was greater than 100 µM. Moreover, the MIC in the series on B. subtilis [6] and in the series with S. aureus Mu50 [7] was greater than 100 µM in each case. In series [3], this compound gave a solubility of 50 µM (≈ 16.6 µg/mL).
On to `NC(=O)c1c(F)ccc(OCc2ccc(C(F)(F)F)cc2)c1F` [Compound 21], for which the Kd in series [4] (read-out: KD) worked out at 6.7 ± 0.4 µM. Besides, the minimal effective concentration with B. subtilis [5] was determined as 25 µM. The values for the MIC with B. subtilis [6] and in the series on S. aureus Mu50 [7] were 50 µM (≈ 16.6 µg/mL) and 100 µM (≈ 33.1 µg/mL), respectively. Besides, in series [3], the concentration in solution (solubility) was 100 µM (≈ 33.1 µg/mL).
As to `NC(=O)c1c(F)ccc(OCCc2cccc(C(F)(F)F)c2)c1F` [Compound 22], the Kd in series [4] (read-out: KD) turned out to be 5.9 ± 0.4 µM. Moreover, the minimal effective concentration in the series with B. subtilis [5] came out at 15 µM; in the series with S. aureus Mu50 [8], 100 µM. Further, the MIC is 50 µM (≈ 17.3 µg/mL) in the series on B. subtilis [6] and 200 µM (≈ 69.1 µg/mL) in the series with S. aureus Mu50 [7]. The same compound showed a solubility in series [3] greater than 100 µM.
In the case of `NC(=O)c1c(F)ccc(OCCCc2cccc(C(F)(F)F)c2)c1F` [Compound 23], in series [4] (read-out: KD), the Kd is 1.5 ± 0.1 µM. In addition, the minimal effective concentration in the series with B. subtilis [5] worked out at 5 µM; with S. aureus Mu50 [8], 25 µM. The MIC in the series with B. subtilis [6] was determined as 10 µM (≈ 3.59 µg/mL); in the series on S. aureus Mu50 [7] it was 50 µM (≈ 18 µg/mL). The solubility in series [3] worked out at 50 µM (≈ 18 µg/mL).
Compound `CN(C)CCC(Oc1ccc(F)c(C(N)=O)c1F)c1cccc(C(F)(F)F)c1` (stereo not drawn) [Compound 24] showed a dissociation constant Kd in series [4] (KD) of 145 ± 10 µM. The results for the minimal effective concentration with B. subtilis [5] and in the series on S. aureus Mu50 [8] were greater than 50 µM and greater than 100 µM, respectively. Moreover, the MIC with B. subtilis [6] and with S. aureus Mu50 [7] was greater than 100 µM throughout. The solubility in series [3] was greater than 1000 µM.
Turning to `COc1ccc(F)c(C(N)=O)c1F` [DFMBA, 2,6-difluoro-3-methoxybenzamide, reference compound], the Kd in series [1] was 670 ± 50 µM.
Consider `Nc1nc2c(ncn2[C@@H]2O[C@H](COP(=O)(O)OP(=O)(O)O)[C@@H](O)[C@H]2O)c(=O)[nH]1` [GDP, guanosine diphosphate, reference compound], for which the “displacement of (S)-2 from its binding site, in words” value in series [1] (negative control) is “does not displace”.
As for `O=C(O)CCN(Cc1ccccc1)Cc1cccc(Sc2ccccc2)c1` [PC170942], the “result” value in series [2] is reported as “no evidence of binding”.
The same measure, in the same setting: for `O=C(Oc1cc(OC(=O)c2cc(O)cc(O)c2)c2ccccc2c1)c1ccc(O)c(O)c1` [UCM44] the value was “marginal inhibitory effect”.
On to `CC1=CC(=O)c2c(O)cccc2C1=O` [plumbagin, reference compound], for which the “result” value in series [2] is “weakly modified anisotropy and total fluorescence intensity”. The “inhibition of B. subtilis cell division, in words” value (“inhibition” for short) in the series on B. subtilis [5] is “none of them impaired B. subtilis cell division”.
`Oc1ccc(/C=C/c2cc(O)cc(O)c2)cc1` [resveratrol, reference compound]: in series [2], the “result” value was “weakly modified anisotropy and total fluorescence intensity”. Moreover, the “inhibition” value with B. subtilis [5] is “none of them impaired B. subtilis cell division”.
Regarding `O=C(O)C(=O)c1cn(Cc2ccccc2)c2ccc(-c3ccc(OC(F)(F)F)cc3)cc12` [tiplaxtinin, reference compound], the “result” value in series [2] was “weakly modified anisotropy and total fluorescence intensity”. Further, the “inhibition” value in the series on B. subtilis [5] is reported as “none of them impaired B. subtilis cell division”.
Take `CCN(CC)CCNc1nc(/C=C/c2ccc(Cl)cc2)nc2cc3ccccc3cc12` [zantrin Z3]: the “result” value in series [2] is listed as “no evidence of binding”.

The values are drawn from PMC8478281, “Targeting the FtsZ Allosteric Binding Site with a Novel Fluorescence Polarization Screen, Cytological and Structural Approaches for Antibacterial Discovery” (Journal of Medicinal Chemistry, 2021).
